ChEMBL document CHEMBL1201862, “PubChem BioAssay data set” (2004)
Calls of active or inactive are those of the source.

Legend:
[1] = target: G-protein coupled receptor 55 (Homo sapiens, UniProt Q9Y2T6); assay: GPR55 antagonists blocking LPI-driven arrestin recruitment, primary screen, imaging, U2OS, beta-arrestin-GFP, LPI agonist (AID 2013); assay type: functional;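 also: antagonist potency measured as reduced agonist-driven arrestin aggregation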
[2] = tested on: Streptococcus sp. 'group A'; assay: growth inhibition of control SK(-) GAS strain, dose response, counter-screen for streptokinase expression inhibitor project, luminescence, kanamycin, BacTiterGlo, confirmation (AID 1900); assay type: functional, organism-based
Streptokinase A = target: T1, Streptokinase A (Streptococcus pyogenes serotype M1, UniProt P10520); assay: S. pyogenes streptokinase expression inhibitors, potency, dose response, plasminogen activation absorbance, OD405 (AID 1914); assay type: functional, Streptococcus pyogenes M1 GAS;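 also: secreted streptokinase activity via plasminogen activation per viability signal from cell pellet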
T1 sequence (P10520 whole entry): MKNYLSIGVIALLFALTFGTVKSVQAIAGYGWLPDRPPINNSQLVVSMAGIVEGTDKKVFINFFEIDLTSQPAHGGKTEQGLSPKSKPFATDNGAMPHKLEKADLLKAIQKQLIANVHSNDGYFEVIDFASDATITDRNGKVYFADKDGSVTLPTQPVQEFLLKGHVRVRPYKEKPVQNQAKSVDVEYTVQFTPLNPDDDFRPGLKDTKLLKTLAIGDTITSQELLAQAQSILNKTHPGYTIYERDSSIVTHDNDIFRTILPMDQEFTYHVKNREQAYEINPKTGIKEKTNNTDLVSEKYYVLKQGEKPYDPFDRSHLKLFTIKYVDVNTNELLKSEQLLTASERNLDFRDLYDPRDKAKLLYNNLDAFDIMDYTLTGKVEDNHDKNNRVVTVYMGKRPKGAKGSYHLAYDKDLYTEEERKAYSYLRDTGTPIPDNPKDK

[3] = target: T2, E3 ubiquitin-protein ligase XIAP (Homo sapiens, UniProt P98170); assay: Counter Screen using XIAP-Bir3 for Chemical Antagonists of Bir1/2 domains of IAP-family anti-apoptotic proteins. [Related pubchem assays (depositor defined):AID1018, AID1449, AID1514, AID1638, AID1749, AID1750, AID488957, AID488963]
[4] = target: T2, E3 ubiquitin-protein ligase XIAP; assay: XIAP antagonists, biochemical, IAP family, fluorescence polarization (AID 1018); assay type: functional
Streptococcus = assay: Group A Streptococcus viability loss, dose response, counter-screen for streptokinase expression inhibitor project, luminescence, BacTiterGlo (AID 1915); assay type: functional, organism-based;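 also: potency for reduction of bacterial viability or growth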
[5] = Luminescence Cell-Based Dose Confirmation HTS to Identify Activators of 5'UTR Stem-Loop Driven Alpha-Synuclein mRNA Translation in H4 Neuroglioblastoma Cells. [Related pubchem assays: 1829 (Project Summary), 1814 (Primary HTS)]; assay type: functional
[6] = Luminescence Cell-Based Dose Response HTS to Identify Activators of Luciferase Translation or Activity in H4 […] Cells. [Related pubchem assays: 1829 (Project Summary), 1814 (Primary HTS)]; assay type: functional
H4 = assay: Luminescence Cell-Based Dose Response HTS to Identify Activators of 5'UTR Stem-Loop Driven Prion Protein mRNA Translation in H4 Neuroglioblastoma Cells. [Related pubchem assays: 1829 (Project Summary), 1814 (Primary HTS)]; assay type: functional; conditions: Homo sapiens
[7] = microbe, parasite or virus in culture; assay type: functional; conditions: Mycobacterium tuberculosis
[8] = THP-1 cell cytotoxicity, dose response, cytotoxicity control for non-replicating M. tuberculosis project (AID 489025); assay type: functional
[9] = HepG2 cell cytotoxicity, dose response, cytotoxicity control for non-replicating M. tuberculosis project (AID 489018); assay type: functional; conditions: Mycobacterium tuberculosis
[10] = Vero E6 cell cytotoxicity, dose response, cytotoxicity control for non-replicating M. tuberculosis project, secondary assay (AID 492998); assay type: functional, VeroE6; conditions: Vero C1008
cells = assay type: functional
[11] = target: T3, Replicative DNA helicase DnaB (Mycobacterium tuberculosis, UniProt P9WMR3); assay: DnaB intein splicing inhibitors, dose response, biochemical, cell-free fluorescence (AID 449749); assay type: functional
T3 sequence (P9WMR3 whole entry): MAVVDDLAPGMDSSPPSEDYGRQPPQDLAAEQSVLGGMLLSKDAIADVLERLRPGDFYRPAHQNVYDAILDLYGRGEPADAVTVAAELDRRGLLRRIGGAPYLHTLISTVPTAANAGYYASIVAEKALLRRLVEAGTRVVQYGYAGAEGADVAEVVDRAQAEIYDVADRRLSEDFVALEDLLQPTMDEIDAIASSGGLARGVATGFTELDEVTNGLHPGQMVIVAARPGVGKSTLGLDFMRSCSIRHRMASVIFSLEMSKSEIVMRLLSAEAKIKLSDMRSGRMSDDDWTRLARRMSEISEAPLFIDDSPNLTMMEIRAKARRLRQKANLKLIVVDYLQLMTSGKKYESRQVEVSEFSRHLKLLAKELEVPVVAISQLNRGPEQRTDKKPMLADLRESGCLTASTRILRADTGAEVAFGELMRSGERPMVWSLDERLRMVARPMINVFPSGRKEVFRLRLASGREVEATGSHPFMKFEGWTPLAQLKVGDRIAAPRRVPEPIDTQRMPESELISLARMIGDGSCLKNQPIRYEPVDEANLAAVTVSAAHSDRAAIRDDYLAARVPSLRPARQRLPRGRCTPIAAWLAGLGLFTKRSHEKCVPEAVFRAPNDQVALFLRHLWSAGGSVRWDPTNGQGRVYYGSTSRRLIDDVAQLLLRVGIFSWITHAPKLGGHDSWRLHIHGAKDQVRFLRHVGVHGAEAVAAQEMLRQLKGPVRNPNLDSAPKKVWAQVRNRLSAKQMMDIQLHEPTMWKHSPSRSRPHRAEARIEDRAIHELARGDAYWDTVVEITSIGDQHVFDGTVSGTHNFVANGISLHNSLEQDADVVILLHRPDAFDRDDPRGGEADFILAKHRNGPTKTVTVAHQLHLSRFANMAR

Vero = Vero cell cytotoxicity, cytotoxicity control for flavivirus capping enzyme inhibitors (AID 588742); assay type: functional; conditions: Chlorocebus sabaeus
Protein RecA = target: T4, Protein RecA (Mycobacterium tuberculosis, UniProt P9WHJ3); assay: Fluorescence Cell-Free Homogeneous Dose Retest to Identify Inhibitors of RecA-Intein Splicing Activity. [Related pubchem assays (depositor defined):AID2097, AID2223, AID489010, AID492950]; assay type: functional
T4 sequence (P9WHJ3 whole entry): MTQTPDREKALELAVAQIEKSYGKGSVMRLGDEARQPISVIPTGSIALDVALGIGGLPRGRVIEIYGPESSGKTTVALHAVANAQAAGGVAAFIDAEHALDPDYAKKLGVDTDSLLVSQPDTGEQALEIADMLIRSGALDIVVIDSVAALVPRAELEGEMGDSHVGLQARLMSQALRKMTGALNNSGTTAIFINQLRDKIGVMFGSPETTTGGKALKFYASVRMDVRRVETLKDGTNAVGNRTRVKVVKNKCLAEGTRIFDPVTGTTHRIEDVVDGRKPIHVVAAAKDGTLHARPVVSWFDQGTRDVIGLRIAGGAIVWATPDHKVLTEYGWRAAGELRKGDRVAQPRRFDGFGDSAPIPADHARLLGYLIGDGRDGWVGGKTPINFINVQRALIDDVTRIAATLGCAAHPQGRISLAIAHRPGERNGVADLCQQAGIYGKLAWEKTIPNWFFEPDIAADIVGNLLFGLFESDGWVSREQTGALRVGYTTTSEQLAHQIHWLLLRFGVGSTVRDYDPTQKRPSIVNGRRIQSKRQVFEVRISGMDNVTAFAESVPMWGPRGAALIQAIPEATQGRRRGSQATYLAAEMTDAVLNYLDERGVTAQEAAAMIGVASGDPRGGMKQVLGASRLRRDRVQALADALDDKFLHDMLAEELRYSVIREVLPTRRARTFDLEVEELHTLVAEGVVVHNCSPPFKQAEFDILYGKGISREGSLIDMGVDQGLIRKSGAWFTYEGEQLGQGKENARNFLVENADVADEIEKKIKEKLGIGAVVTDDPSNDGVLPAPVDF

Genome polyprotein = Genome polyprotein (dengue virus type 2, UniProt P29990); assay: Dengue-2 NS5 methyltransferase inhibitors, primary screen, biochemical, confirmation dose response (AID 588689); assay type: functional
[12] = target: T5, Polyadenylate-binding protein 1 (Homo sapiens, UniProt P11940); assay: PABP1 MLLE–PAM2 interaction inhibitors, dose response, miRNA deadenylation inhibitor project, biochemical, fluorescence polarization, Cy5-PAM2 peptide, secondary (AID 602260); assay type: functional; conditions: read-out: IC50_Mean
[13] = target: T5, Polyadenylate-binding protein 1; assay: PABP1 MLLE–PAM2 binding inhibitor potency, dose response, biochemical, fluorescence polarization, FITC-PAM2 peptide (AID 602259); assay type: functional; conditions: read-out: IC50_Mean
[14] = inhibitors of Vif binding to APOBEC3G peptide, primary screen, biochemical, TR-FRET, GST-Vif 1-94, biotin-A3G peptide, dose response retest (AID 1117319); assay type: functional;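 also: TR-FRET signal of purified GST-Vif binding a biotinylated A3G peptide; inhibitors lower the FRET signal by blocking Vif and A3G binding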
Bcl-2-related protein A1 = target: T6, Bcl-2-related protein A1 (Mus musculus, UniProt Q07440); assay type: functional;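 also: confirmatory dose–response counterscreen on Bfl-1, used to check hits from a UBC13 polyubiquitin inhibitor campaign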
T6 sequence (Q07440 whole entry): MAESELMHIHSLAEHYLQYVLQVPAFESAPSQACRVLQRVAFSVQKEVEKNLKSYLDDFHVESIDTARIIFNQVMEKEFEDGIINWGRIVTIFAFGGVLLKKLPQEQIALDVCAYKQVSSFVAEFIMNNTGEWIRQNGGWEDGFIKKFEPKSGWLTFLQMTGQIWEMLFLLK

[15] = target: T7, Ubiquitin-conjugating enzyme E2 N (Homo sapiens, UniProt P61088); assay type: functional
T7 sequence (P61088 whole entry): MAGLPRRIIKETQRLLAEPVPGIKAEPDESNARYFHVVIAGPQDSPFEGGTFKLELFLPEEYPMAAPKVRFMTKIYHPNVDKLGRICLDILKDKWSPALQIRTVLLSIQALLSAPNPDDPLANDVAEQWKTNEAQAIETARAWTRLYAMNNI

[16] = target: T7, Ubiquitin-conjugating enzyme E2 N; assay type: functional; remark: listed apart in the source
[17] = target: T8, Mannose-6-phosphate isomerase (Homo sapiens, UniProt P34949); assay: PMI enzyme inhibitors, confirmation, biochemical, fluorescence intensity (AID 1535)
T8 sequence (P34949 whole entry): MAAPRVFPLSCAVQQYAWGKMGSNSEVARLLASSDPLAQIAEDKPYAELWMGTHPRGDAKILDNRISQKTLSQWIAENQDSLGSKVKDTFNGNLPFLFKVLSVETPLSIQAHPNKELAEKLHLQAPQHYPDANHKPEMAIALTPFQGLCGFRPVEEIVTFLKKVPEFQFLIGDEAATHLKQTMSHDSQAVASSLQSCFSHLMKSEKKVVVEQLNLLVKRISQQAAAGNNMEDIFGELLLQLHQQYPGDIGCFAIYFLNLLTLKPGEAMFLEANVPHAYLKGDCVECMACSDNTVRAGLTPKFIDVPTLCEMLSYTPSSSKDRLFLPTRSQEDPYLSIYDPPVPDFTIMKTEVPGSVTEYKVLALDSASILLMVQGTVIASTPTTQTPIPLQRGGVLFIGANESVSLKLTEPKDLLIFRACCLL

Phosphomannomutase 2 = Phosphomannomutase 2 (Homo sapiens, UniProt O15305); assay: Counter screen SAR assay for PMM2 inhibitors via a fluorescence intensity assay. [Related pubchem assays (depositor defined):AID1545, AID1574]
Sequence of Phosphomannomutase 2 (O15305 whole entry): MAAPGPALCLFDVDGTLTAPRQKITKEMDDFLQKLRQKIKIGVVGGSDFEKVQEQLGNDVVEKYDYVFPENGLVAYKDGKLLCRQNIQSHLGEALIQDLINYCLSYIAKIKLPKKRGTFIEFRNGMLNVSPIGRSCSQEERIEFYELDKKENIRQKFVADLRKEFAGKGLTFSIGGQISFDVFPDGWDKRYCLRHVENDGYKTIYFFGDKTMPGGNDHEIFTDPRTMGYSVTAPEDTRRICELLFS

T2 sequence (P98170 whole entry): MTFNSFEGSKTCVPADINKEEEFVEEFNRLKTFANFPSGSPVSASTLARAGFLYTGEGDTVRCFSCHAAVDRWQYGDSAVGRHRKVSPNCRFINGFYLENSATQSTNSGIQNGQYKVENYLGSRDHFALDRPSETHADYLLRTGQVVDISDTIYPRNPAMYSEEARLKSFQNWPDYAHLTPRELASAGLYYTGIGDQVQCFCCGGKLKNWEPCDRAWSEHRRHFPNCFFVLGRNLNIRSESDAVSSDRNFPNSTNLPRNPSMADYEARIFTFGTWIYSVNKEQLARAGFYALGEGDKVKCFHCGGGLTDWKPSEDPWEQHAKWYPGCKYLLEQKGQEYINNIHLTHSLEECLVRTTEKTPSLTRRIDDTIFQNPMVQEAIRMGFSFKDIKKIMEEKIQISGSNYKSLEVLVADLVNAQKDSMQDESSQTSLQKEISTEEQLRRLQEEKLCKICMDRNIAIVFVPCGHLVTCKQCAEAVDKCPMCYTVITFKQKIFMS
T5 sequence (P11940 whole entry): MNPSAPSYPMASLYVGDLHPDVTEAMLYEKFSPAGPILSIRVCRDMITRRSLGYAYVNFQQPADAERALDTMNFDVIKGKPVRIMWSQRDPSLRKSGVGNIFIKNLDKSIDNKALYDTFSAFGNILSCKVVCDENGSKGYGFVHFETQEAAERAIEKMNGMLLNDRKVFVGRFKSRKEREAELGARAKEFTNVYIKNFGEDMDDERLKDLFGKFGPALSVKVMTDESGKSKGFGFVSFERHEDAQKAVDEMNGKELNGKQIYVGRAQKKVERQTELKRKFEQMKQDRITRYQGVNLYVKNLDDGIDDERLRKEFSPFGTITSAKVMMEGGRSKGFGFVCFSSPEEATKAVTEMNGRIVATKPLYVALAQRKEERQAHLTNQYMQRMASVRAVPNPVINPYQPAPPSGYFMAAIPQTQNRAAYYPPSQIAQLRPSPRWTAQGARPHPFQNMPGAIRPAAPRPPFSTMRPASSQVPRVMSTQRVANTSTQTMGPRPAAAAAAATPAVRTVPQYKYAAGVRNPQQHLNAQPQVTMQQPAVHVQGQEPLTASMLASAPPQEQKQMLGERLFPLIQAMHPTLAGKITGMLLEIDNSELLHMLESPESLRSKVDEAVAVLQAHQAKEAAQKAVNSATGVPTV
Sequence of G-protein coupled receptor 55 (Q9Y2T6 whole entry): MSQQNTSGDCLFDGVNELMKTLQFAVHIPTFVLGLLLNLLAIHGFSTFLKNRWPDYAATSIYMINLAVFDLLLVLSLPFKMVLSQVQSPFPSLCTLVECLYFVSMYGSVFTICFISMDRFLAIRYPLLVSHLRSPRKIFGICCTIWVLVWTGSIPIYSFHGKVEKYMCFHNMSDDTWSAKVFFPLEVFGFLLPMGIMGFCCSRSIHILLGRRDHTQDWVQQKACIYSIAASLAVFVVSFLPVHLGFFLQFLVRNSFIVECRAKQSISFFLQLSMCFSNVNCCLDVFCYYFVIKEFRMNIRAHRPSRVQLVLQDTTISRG
Sequence of Genome polyprotein (P29990 2492-3391 limits assumed): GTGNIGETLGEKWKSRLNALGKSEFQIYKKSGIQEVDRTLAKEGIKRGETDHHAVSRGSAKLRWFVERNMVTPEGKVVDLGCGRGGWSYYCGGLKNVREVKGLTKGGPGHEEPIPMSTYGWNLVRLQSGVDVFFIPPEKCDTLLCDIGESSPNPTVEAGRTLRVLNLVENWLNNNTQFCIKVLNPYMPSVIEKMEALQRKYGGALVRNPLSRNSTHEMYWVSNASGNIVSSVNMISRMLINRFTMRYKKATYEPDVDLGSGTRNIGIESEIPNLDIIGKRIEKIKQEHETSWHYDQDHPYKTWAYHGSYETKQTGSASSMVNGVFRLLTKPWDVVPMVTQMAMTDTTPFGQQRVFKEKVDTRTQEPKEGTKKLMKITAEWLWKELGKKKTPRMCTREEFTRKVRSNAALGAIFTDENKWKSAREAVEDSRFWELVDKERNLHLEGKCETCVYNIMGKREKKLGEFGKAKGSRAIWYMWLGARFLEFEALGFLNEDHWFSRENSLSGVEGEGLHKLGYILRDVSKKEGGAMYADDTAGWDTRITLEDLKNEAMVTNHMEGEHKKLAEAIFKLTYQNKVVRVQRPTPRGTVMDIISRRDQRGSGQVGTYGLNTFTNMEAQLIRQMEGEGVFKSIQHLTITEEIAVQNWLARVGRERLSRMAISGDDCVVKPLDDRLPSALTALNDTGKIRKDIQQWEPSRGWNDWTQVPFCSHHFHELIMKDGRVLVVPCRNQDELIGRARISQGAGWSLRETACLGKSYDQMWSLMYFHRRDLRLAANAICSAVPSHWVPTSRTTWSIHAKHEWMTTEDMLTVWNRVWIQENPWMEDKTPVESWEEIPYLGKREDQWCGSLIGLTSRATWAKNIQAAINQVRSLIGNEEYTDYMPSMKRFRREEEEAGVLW

## O=C1/C(=C/c2ccncc2)SC(=S)N1C1CCS(=O)(=O)C1 (stereo not drawn)
[1]
  IC50: 5.49 µM (active)

## COc1ccc(CCNC(=O)CSc2nncn2N)cc1OC
[2]
  EC50: > 150 µM (not active)
Streptokinase A
  EC50: > 150 µM (not active)
[3]
  IC50: > 100 µM (inactive)
[4]
  IC50: > 100 µM (not active)
Streptococcus
  EC50: > 150 µM (not active)

## O=[N+]([O-])c1cc([N+](=O)[O-])c2cc3ccccc3nc2c1
[5]
  EC50: > 120 µM (not active)
[6]
  EC50: > 120 µM (not active)
H4
  EC50: 32 µM (active)
[7]
  CC50: 18.9 µM (active)
[8]
  CC50: 5.67 µM (active)
[9]
  CC50: 14 µM (active)
[10]
  CC50: 12.7 µM (active)
cells
  IC50: 0.39 µM (active)
[11]
  AC50: > 380 µM (inconclusive)
Vero
  CC50: 10.1 µM (active)
Protein RecA
  EC50: 1.17 µM (active)
Genome polyprotein
  IC50: 6.37 µM (active)
[12]
  IC50: > 66 µM (inactive)
[13]
  IC50: > 66 µM (inactive)

## O=C(O)CN1C(=O)COc2cc(S(=O)(=O)N3CCCC3)ccc21
[3]
  IC50: > 100 µM (inactive)
[4]
  IC50: > 100 µM (not active)
[14]
  IC50: > 100 µM (active)

## COc1ccc(/C=C/C(=O)Nc2c(C)nn(C)c2C)cc1COc1ccc(Cl)cc1Br
Bcl-2-related protein A1
  IC50: 3.32 µM (active)
[15]
  IC50: 15.6 µM (active)
[16]
  IC50: 17.4 µM (active)

## COCCNP(=O)(c1ccccc1)c1nc2ccccc2s1 (stereo not drawn)
[17]
  IC50: > 50 µM (inactive)
Phosphomannomutase 2
  IC50: > 100 µM (inactive)
